Data as given in ChEMBL document CHEMBL1201862, “PubChem BioAssay data set” (2004).
Activity calls are given as the source filed them.

Experiments:
[1] = viability loss in HepG2 hepatoma cells – cell-based, ATP luminescence, cherry-pick, activator set 2, cytotoxicity control, dose response (AID 1053143); type: functional
[2] = target: T1, Carboxy-terminal domain RNA polymerase II polypeptide A small phosphatase 1 (Homo sapiens, UniProt Q9GZU7); test: CTDSP1 inhibitors, concentration-response, biochemical, absorbance readout, ultra-high-throughput screen actives (AID 540297); type: functional
T1 sequence (Q9GZU7 whole entry): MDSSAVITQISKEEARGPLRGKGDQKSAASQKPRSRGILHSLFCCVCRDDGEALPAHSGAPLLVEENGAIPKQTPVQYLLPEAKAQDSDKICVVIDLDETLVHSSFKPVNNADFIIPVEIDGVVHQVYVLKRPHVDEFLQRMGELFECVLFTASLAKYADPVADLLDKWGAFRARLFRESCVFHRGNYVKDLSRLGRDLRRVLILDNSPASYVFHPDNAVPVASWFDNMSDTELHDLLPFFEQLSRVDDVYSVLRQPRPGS

[3] = target: 26S proteasome non-ATPase regulatory subunit 14 (Homo sapiens, UniProt O00487); test: inhibition of proteasome subunit RPN11 – biochemical, fluorescence polarization, uHTS hits, confirmation (AID 602368); type: functional
Sequence of 26S proteasome non-ATPase regulatory subunit 14 (O00487 whole entry): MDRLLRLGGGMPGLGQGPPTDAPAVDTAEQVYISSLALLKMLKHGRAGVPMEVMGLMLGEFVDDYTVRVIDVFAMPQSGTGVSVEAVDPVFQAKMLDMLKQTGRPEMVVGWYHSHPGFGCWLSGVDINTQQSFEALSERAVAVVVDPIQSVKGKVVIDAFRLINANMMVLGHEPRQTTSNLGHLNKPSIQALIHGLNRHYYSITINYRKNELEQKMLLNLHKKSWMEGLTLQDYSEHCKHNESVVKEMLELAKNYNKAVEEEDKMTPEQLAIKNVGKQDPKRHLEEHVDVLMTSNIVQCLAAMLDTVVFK

[4] = target: 72 kDa type IV collagenase (Homo sapiens, UniProt P08253); test: Dose Response validation of uHTS RPN11 inhibitor hits using a MMP-2 Fluorescence assay.; type: functional
Sequence of 72 kDa type IV collagenase (P08253 whole entry): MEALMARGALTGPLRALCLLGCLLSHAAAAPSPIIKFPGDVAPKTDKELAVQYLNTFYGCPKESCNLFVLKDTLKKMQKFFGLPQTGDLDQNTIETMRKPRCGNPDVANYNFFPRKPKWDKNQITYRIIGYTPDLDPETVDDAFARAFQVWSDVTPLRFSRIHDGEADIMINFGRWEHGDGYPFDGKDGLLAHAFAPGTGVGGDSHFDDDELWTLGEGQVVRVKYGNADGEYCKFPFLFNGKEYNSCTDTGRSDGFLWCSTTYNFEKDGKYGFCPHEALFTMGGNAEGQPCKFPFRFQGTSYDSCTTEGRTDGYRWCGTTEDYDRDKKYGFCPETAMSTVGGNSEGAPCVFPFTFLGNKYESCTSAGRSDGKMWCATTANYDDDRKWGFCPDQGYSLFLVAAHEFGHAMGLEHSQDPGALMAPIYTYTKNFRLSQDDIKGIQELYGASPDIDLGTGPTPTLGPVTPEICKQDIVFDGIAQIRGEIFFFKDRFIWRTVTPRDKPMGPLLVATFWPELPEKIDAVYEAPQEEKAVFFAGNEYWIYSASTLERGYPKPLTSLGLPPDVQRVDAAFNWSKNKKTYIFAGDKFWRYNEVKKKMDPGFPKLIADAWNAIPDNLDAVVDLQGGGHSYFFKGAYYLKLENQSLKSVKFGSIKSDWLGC

[5] = target: Prothrombin (Bos taurus, UniProt P00735); test: thrombin protease inhibitors – biochemical, fluorescence polarization, uHTS hits, dose response (AID 602369); type: functional
[6] = target: T2, Caspase-6 (Homo sapiens, UniProt P55212); test: inhibition of CASP6 peptide cleavage – biochemical, VEID-R110 fluorescence, cherry-pick, dose response (AID 720632)
T2 sequence (P55212 whole entry): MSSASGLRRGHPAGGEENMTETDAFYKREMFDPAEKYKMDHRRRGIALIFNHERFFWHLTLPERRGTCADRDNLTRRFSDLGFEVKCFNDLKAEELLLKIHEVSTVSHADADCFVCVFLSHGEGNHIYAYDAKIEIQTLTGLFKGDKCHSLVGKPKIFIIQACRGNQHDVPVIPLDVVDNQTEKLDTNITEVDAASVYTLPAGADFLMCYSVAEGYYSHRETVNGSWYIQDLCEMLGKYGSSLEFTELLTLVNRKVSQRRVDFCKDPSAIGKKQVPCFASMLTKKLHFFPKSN

[7] = A Cell Based Secondary Assay To Explore Cytotoxicity of Compounds that Sensitize Mycobacterium Tuberculosis to Beta-Lactam Antibiotics.; type: functional
[8] = viability of uninfected HEp-2 cells – cell-based, HTS, cytotoxicity control for RSV inhibitor project, dose response (AID 2410); type: functional; details: human respiratory syncytial virus
[9] = Trypanosoma cruzi growth suppression in host cells – NIH3T3 host cells, beta-gal luminescence, confirmation (AID 2044); type: functional, cell-based;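 further: intracellular parasites grown in NIH/3T3 mouse fibroblasts as host cells; luminescent beta-galactosidase reporter signal from transgenic T. cruzi replicating inside host cells; inhibitors lower the luminescence signal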
[10] = NIH3T3 cell viability loss – ATP luminescence, mouse fibroblasts, counter-screen, dose response (AID 2010); type: functional, cell-based;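 further: cells exposed to compound for about 90 hours before reading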
[11] = target: T3, Fatty acid synthase (Homo sapiens, UniProt P49327); test: inhibition of human FAS-TE enzyme activity – biochemical, endpoint fluorescence intensity, uHTS hits, dose response (AID 624327); type: functional;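 further: fluorescence from hydrolysis of an O-methyl fluorescein acyl ester substrate by the enzyme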
T3 sequence (P49327 whole entry): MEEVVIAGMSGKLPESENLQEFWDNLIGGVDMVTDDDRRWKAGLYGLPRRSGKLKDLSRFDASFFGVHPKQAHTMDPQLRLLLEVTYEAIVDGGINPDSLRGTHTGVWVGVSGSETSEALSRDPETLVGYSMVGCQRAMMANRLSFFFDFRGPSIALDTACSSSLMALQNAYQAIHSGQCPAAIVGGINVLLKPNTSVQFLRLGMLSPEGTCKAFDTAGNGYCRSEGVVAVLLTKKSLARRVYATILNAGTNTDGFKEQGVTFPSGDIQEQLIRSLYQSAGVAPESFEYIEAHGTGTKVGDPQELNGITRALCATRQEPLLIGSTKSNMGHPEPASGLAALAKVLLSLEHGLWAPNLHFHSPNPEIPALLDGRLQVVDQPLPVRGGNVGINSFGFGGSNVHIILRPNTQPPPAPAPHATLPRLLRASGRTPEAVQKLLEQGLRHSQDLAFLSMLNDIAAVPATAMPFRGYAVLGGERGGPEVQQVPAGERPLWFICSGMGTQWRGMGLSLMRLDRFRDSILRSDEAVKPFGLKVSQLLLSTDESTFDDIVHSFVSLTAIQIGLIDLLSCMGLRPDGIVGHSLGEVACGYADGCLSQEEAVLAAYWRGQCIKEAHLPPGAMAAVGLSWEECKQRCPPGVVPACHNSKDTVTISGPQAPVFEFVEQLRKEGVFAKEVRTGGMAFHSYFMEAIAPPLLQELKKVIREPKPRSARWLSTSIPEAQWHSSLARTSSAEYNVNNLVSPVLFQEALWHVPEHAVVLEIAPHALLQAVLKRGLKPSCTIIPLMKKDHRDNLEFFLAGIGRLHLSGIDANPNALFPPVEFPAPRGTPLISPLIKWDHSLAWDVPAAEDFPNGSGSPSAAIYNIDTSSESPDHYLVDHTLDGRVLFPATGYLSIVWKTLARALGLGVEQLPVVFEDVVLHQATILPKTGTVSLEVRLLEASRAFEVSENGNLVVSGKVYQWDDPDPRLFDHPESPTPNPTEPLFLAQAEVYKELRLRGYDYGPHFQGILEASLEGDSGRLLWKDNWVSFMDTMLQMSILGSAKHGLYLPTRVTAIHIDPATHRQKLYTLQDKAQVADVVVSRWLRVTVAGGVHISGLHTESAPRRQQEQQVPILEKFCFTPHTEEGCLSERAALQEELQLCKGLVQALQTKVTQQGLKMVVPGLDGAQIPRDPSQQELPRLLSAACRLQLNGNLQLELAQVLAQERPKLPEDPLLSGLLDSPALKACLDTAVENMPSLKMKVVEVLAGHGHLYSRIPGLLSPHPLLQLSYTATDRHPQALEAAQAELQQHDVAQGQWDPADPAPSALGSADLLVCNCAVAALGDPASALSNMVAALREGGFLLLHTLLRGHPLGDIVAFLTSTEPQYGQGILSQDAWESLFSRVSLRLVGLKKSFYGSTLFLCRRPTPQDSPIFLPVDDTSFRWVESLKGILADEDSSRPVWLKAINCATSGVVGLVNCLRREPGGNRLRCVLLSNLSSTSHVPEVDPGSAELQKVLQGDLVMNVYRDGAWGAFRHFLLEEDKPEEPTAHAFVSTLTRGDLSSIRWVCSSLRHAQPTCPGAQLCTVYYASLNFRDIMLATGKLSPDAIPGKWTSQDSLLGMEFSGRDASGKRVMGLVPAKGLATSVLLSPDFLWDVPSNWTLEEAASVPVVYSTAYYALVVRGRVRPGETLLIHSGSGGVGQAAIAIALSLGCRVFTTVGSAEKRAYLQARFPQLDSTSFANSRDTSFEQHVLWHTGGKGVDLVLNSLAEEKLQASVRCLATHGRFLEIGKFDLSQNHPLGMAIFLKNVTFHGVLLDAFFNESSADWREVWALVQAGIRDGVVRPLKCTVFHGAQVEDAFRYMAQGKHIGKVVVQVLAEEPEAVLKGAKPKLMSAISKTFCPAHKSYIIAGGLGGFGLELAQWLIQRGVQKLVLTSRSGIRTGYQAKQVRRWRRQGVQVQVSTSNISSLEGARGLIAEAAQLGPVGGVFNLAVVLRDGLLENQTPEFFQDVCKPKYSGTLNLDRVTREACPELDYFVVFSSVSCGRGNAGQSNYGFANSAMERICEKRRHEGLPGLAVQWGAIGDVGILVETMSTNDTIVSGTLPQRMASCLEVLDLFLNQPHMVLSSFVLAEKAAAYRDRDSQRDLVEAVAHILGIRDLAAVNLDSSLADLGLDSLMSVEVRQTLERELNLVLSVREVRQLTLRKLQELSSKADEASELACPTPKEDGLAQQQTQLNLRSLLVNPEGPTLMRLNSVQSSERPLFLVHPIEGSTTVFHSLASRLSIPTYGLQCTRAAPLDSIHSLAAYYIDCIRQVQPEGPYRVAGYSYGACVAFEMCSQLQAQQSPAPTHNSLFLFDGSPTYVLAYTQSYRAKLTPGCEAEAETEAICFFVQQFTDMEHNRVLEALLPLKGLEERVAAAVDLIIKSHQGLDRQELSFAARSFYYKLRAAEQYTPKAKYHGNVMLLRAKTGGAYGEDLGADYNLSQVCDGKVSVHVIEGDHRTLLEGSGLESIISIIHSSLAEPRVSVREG

[12] = target: T3, Fatty acid synthase; test: inhibition of human FAS-TE enzyme activity – biochemical, kinetic fluorescence intensity, dose response (AID 624326); type: functional;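 further: rate of fluorescence rise from hydrolysis of a fluorogenic O-methyl fluorescein ester substrate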
[13] = cells
[14] = A cytotoxicity screen of small molecule inhibitors of the PhoP region in Salmonella typhi identified in the primary screen. [Related pubchem assays: 1850, 1864, 1985 ]; type: functional
[15] = target: T4, Estrogen receptor (Homo sapiens, UniProt P03372);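 further: potency for inhibiting coactivator peptide recruitment to the receptor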
T4 sequence (P03372 whole entry): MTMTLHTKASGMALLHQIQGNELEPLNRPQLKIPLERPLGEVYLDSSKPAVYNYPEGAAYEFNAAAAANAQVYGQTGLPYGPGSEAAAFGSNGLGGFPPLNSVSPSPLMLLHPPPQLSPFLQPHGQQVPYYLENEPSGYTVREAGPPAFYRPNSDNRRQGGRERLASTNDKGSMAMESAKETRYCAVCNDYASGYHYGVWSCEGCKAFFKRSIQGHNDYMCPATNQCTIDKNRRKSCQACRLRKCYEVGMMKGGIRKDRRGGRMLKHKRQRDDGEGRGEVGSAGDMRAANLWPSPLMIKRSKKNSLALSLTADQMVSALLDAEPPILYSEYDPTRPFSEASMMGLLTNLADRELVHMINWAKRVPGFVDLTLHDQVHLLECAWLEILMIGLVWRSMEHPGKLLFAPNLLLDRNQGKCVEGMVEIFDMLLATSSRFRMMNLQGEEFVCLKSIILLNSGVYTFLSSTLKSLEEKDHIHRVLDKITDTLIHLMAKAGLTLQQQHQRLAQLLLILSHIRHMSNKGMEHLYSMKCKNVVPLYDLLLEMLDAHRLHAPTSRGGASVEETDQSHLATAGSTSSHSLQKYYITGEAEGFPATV

[16] = target: T5, Estrogen receptor beta (Homo sapiens, UniProt Q92731);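 further: recombinant ER-beta bound to coactivator SRC1 peptide in presence of estradiol agonist; inhibitors block coactivator peptide binding and lower the FRET signal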
T5 sequence (Q92731 whole entry): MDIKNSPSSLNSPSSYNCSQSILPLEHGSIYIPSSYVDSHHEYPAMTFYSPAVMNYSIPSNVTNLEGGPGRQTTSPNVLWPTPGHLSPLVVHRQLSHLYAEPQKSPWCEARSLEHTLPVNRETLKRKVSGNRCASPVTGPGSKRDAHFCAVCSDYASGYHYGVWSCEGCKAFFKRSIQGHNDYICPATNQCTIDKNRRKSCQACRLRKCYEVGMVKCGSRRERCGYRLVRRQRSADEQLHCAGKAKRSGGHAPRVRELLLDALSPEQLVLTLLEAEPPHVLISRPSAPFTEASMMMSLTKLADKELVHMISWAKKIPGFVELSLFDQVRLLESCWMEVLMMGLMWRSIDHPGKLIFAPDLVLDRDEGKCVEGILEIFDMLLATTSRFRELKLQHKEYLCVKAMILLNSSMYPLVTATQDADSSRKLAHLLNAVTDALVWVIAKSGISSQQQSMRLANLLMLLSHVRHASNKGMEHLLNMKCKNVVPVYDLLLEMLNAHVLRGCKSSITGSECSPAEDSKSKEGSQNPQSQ

[17] = target: T5, Estrogen receptor beta; test: blockers of SRC-3 recruitment to ERβ – biochemical, ELISA, streptavidin-HRP readout, orthogonal assay, confirmation (AID 1060)

**Q.** For `CCOC(=O)c1ccc2nc(NC(=O)c3ccco3)sc2c1`, which AC50 [1] is on record?
**A.** Its AC50 is 26 µM (active).

**Q.** With `Cc1cccc(NC(=O)CNC(=O)CCc2nc3sc4c(c3c(=O)[nH]2)CCCC4)c1C` as the compound, how does the IC50 [2] read?
**A.** Its IC50 is 2.66 µM (active).

**Q.** What about the IC50 [3] of the same compound?
**A.** The IC50 was 7.12 µM (active).

**Q.** What about the IC50 [4] of the same compound?
**A.** Its IC50 is > 100 µM (inactive).

**Q.** What about the IC50 [5] of the same compound?
**A.** The IC50 was 43.9 µM (active).

**Q.** And the AC50 [6]?
**A.** Its AC50 is 7.7 µM (active).

**Q.** For `N#Cc1ccc(C23CC4(C2)[C@H](CN(Cc2cccnc2)[C@@H]4c2ccccc2)C3c2ccccc2)cc1` (stereo not given in full), which CC50 [7] is on record?
**A.** The CC50 was > 40 µM (active).

**Q.** For `Cn1c(/C=N/c2nc3ccccc3[nH]2)nc2ccccc21`, which CC50 [7] is on record?
**A.** Its CC50 is 37.4 µM (active).

**Q.** For `Cc1ccc2c(C)nc(N=C(N)NS(=O)(=O)c3ccc([N+](=O)[O-])cc3)nc2c1`, which CC50 [8] is on record?
**A.** Its CC50 is 45.4 µM (active).

**Q.** And the EC50 [9]?
**A.** Its EC50 is < 0.1 µM (active).

**Q.** And the EC50 [10]?
**A.** The EC50 was > 60 µM (not active).

**Q.** And the IC50 [11]?
**A.** The IC50 was 10.9 µM (active).

**Q.** And the IC50 [12]?
**A.** The IC50 was 8.96 µM (active).

**Q.** What about the EC50 [13] of the same compound?
**A.** Its EC50 is 0.273 µM (active).

**Q.** For `Brc1c(CSc2nc3ccccc3o2)nc2ncccn12`, which AC50 [1] is on record?
**A.** Its AC50 is > 52 µM (inactive).

**Q.** For `CC1(C)CC(=O)C2=C(C1)N(c1ccc(F)cc1)C(=O)CC2c1ccsc1` (stereo not given), which EC50 [14] is on record?
**A.** The EC50 was > 50 µM (active).

**Q.** What does the source list for `O=C(c1cc2ncc(Br)cn2n1)N1CCN(C(=O)c2ccco2)CC1`?
**A.** IC50 [15]: 17.9 µM (active); IC50 [16]: 2.73 µM (active); IC50 [17]: 0.349 µM (not active); IC50 [2]: 16.5 µM (active)
